Structures can show the parent of a compound that is named as a salt.
Target: SHP2 (Homo sapiens (Human), UniProt Q06124)
Assay: SHP2 Allosteric Inhibition Assay (DiFMUP prompt fluorescence)
Assay type: biochemical
Details: 0.25 nM SHP2 activated with 0.5 μM peptide IRS1_pY1172(dPEG8)pY1222; substrate DiFMUP 100 μM; 25° C.

IC50 [µM] | SMILES
< 1 | C[C@@H]1OCC2(CCN(c3cnc4c(N5CCc6ccccc6C5)n[nH]c4n3)CC2)[C@@H]1N [Compound 268]
1 to 10 | COC(=O)CCc1ncccc1Nc1n[nH]c2nc(N3CCC(C)(N)CC3)cnc12 [Compound 495, methyl 3-[3-[[6-(4-amino-4-methyl-1-piperidyl)-1H-pyrazolo[3,4-b]pyrazin-3-yl]amino]-2-pyridyl]propanoate]
≥ 10 | CC1(N)CCN(c2cnc3c(SC4CCCNC4)n[nH]c3n2)CC1 (stereo not shown) [Compound 492, 4-methyl-1-(3-(piperidin-3-ylthio)-1H-pyrazolo[3,4-b]pyrazin-6-yl)piperidin-4-amine]
< 1 | CC(C)N1CCN(c2n[nH]c3nc(N4CCC5(CC4)CO[C@@H](C)[C@H]5N)cnc23)c2ccc(C#N)cc21 [Compound 409]
≥ 10 | c1ccc(C2CCN(c3cnc4c(N5CCCc6ncccc65)n[nH]c4n3)C2)cc1 (stereo not shown) [Compound 151]
< 1 | COCCNC(=O)c1ccc2c(n1)C(C)CCN2c1n[nH]c2nc(N3CCC4(CC3)CO[C@@H](C)[C@H]4N)cnc12 (stereo in doubt) [Compound 437, (8S)-5-(6-[(3S,4S)-4-amino-3-methyl-2-oxa-8-azaspiro[4.5]decan-8-yl]-1H-pyrazolo[3,4-b]pyrazin-3-yl)-N-(2-methoxyethyl)-8-methyl-5,6,7,8-tetrahydro-1,5-naphthyridine-2-carboxamide hydrochloride]
≥ 10 | Cn1nc(Oc2ccnc(Cl)c2Cl)c2ncc(N3CCC(C)(CN)CC3)nc21 [Compound 501, (1-(3-((2,3-dichloropyridin-4-yl)oxy)-1-methyl-1H-pyrazolo[3,4-b]pyrazin-6-yl)-4-methylpiperidin-4-yl)methanamine]
1 to 10 | CC1(N)CCN(c2cnc3c(Oc4cnccc4Cl)n[nH]c3n2)CC1 [Compound 509, 1-(3-((4-Chloropyridin-3-yl)oxy)-1H-pyrazolo[3,4-b]pyrazin-6-yl)-4-methylpiperidin-4-amine hydrochloride]
≥ 10 | c1ccc(CC2CCN(c3cnc4c(N5CCCc6ncccc65)n[nH]c4n3)C2)cc1 (stereo not shown) [Compound 146]
< 1 | C[C@@H]1OCC2(CCN(c3cnc4c(N5CCCc6c5cccc6S(C)(=O)=O)n[nH]c4n3)CC2)[C@@H]1N [Compound 281, (3S,4S)-8-[3-(5-methanesulfonyl-1,2,3,4-tetrahydroquinolin-1-yl)-1H-pyrazolo[3,4-b]pyrazin-6-yl]-3-methyl-2-oxa-8-azaspiro[4.5]decan-4-amine]
1 to 10 | Cc1ccnc2c1N(c1n[nH]c3nc(N4CCC(C)(CN)CC4)cnc13)CCC2 [Compound 90]
≥ 10 | CC(=O)N1CCCC(Sc2n[nH]c3nc(N4CCC(C)(N)CC4)cnc23)C1 (stereo not shown) [Compound 488, 1-(3-((6-(4-amino-4-methylpiperidin-1-yl)-1H-pyrazolo[3,4-b]pyrazin-3-yl)thio)piperidin-1-yl)ethan-1-one]
< 1 | C[C@@H]1OCC2(CCN(c3cnc4c(N5CCN([C@@H]6CCOC6)c6cc(C#N)ccc65)n[nH]c4n3)CC2)[C@@H]1N [Compound 403]
< 1 | C[C@@H]1OCC2(CCN(c3cnc4c(N5CCCc6c5ccnc6C(F)F)n[nH]c4n3)CC2)[C@@H]1N [Compound 236]
≥ 10 | NC[C@H]1CCN(c2cnc3c(N4CCCc5ncccc54)n[nH]c3n2)[C@H](Cc2ccccc2)C1 (racemic) [Compound 158]
< 1 | C[C@@H]1OCC2(CCN(c3cnc4c(N5CCN(CCF)c6cc(C#N)ccc65)n[nH]c4n3)CC2)[C@@H]1N [Compound 529]
< 1 | CNC(=O)c1cccc2c1CCN2c1n[nH]c2nc(N3CCC(C)(CN)CC3)cnc12 [Compound 107, 1-(6-(4-(aminomethyl)-4-methylpiperidin-1-yl)-1H-pyrazolo[3,4-b]pyrazin-3-yl)-N-methylindoline-4-carboxamide]
≥ 10 | CC1(N)CCN(c2cnc3c(N4CCCn5c4cccc5=O)n[nH]c3n2)CC1 [Compound 43]
< 1 | C[C@@H]1OCC2(CCN(c3cnc4c(N5CC[C@H](C)c6cc(C#N)ccc65)n[nH]c4n3)CC2)[C@@H]1N [Compound 220]
1 to 10 | CC1(N)CCN(c2cnc3c(N4CCNc5ccccc54)n[nH]c3n2)CC1 [Compound 29]
< 1 | CC1c2ccccc2CCN1c1n[nH]c2nc(N3CCC4(CC3)CO[C@@H](C)[C@H]4N)cnc12 (stereo partly shown) [Compound 357]
< 1 | CC1(CN)CCN(c2cnc3c(N4CCCc5c(F)cccc54)n[nH]c3n2)CC1 [Compound 52]
< 1 | CC(=O)N1CCN(c2n[nH]c3nc(N4CCC5(CC4)CO[C@@H](C)[C@H]5N)cnc23)c2ccc(C#N)cc21 [Compound 302]

Further lines, the compound ahead of its results:

SMILES | IC50 [µM]
C[C@@H]1OCC2(CCN(c3cnc4c(N5CCCc6c([C@H]7CC(=O)N(C)C7)cccc65)n[nH]c4n3)CC2)[C@@H]1N [Compound 521] | < 1
CC1(CN)CCN(c2cnc3c(N4CCc5ncccc54)n[nH]c3n2)CC1 [Compound 124] | < 1
C[C@@H]1OCC2(CCN(c3cnc4c(N5CCCc6c5ccn(C)c6=O)n[nH]c4n3)CC2)[C@@H]1N [Compound 240] | < 1
C[C@@H]1OCC2(CCN(c3cnc4c(N5CCCc6nc(-c7cncnc7)ccc65)n[nH]c4n3)CC2)[C@@H]1N [Compound 304] | < 1
C[C@@H]1OCC2(CCN(c3cnc4c(N5CCCc6c(-c7ncon7)cccc65)n[nH]c4n3)CC2)[C@@H]1N [Compound 433, (3S,4S)-3-methyl-8-{3-[5-(1,2,4-oxadiazol-3-yl)-1,2,3,4-tetrahydroquinolin-1-yl]-1H-pyrazolo[3,4-b]pyrazin-6-yl}-2-oxa-8-azaspiro[4.5]decan-4-amine] | < 1
C[C@@H]1OCC2(CCN(c3cnc4c(N5CCCc6c5cccc6P(C)(C)=O)n[nH]c4n3)CC2)[C@@H]1N [Compound 369] | < 1
C[C@@H]1OCC2(CCN(c3cnc4c(N5CCCc6nc(-n7cccn7)ccc65)n[nH]c4n3)CC2)[C@@H]1N [Compound 252] | < 1
C[C@@H]1OCC2(CCN(c3cnc4c(N5CCCc6c(N)cccc65)n[nH]c4n3)CC2)[C@@H]1N [Compound 375, (3S,4S)-8-[3-(5-amino-1,2,3,4-tetrahydroquinolin-1-yl)-1H-pyrazolo[3,4-b]pyrazin-6-yl]-3-methyl-2-oxa-8-azaspiro[4.5]decan-4-amine] | < 1
C[C@@H]1OCC2(CCN(c3cnc4c(N5CCCc6c(C#N)cccc65)n[nH]c4n3)CC2)[C@@H]1N [Compound 386] | < 1
C[C@@H]1OCC2(CCN(c3cnc4c(N5CCCc6c5ccnc6C#N)n[nH]c4n3)CC2)[C@@H]1N [Compound 228] | < 1
C[C@@H]1OCC2(CCN(c3cnc4c(N5CCCc6nc(C7=CCNCC7)ccc65)n[nH]c4n3)CC2)[C@@H]1N [Compound 427, (3S,4S)-3-methyl-8-{3-[6-(1,2,3,6-tetrahydropyridin-4-yl)-1,2,3,4-tetrahydro-1,5-naphthyridin-1-yl]-1H-pyrazolo[3,4-b]pyrazin-6-yl}-2-oxa-8-azaspiro[4.5]decan-4-amine hydrochloride] | < 1
C[C@@H]1OCC2(CCN(c3cnc4c(N5CCN(C6COC6)c6cc(C#N)ccc65)n[nH]c4n3)CC2)[C@@H]1N [Compound 398] | < 1
CC1(N)CCN(c2cnc3c(Sc4ccccc4C#N)n[nH]c3n2)CC1 [Compound 10, 2-((6-(4-amino-4-methylpiperidin-1-yl)-1H-pyrazolo[3,4-b]pyrazin-3-yl)thio)benzonitrile] | < 1
NC(C(=O)O)C1CCN(c2cnc3c(N4CCCc5ncccc54)n[nH]c3n2)CC1 (stereo not shown) [Compound 178, 2-amino-2-{1-[3-(1,2,3,4-tetrahydro-1,5-naphthyridin-1-yl)-1H-pyrazolo[3,4-b]pyrazin-6-yl]piperidin-4-yl}acetic acid dihydrochloride] | 1 to 10
C[C@@H]1OCC2(CCN(c3cnc4c(N5CC[C@H](C)c6ncc(F)cc65)n[nH]c4n3)CC2)[C@@H]1N (single isomer, unassigned) [Compound 263, hydrochloride] | < 1
CC1(N)CCN(c2cnc3c(N4CCCC(c5ccccc5)C4)n[nH]c3n2)CC1 (stereo not shown) [Compound 47] | 1 to 10
CC(C)C1CCN(c2n[nH]c3nc(N4CCC(C)(CN)CC4)cnc23)c2ccccc21 (stereo not shown) [Compound 89] | < 1
C[C@@H]1OCC2(CCN(c3cnc4c(N5CCCc6cc(C#N)ccc65)n[nH]c4n3)CC2)[C@@H]1N [Compound 217] | < 1
C[C@@H]1OCC2(CCN(c3cnc4c(N5CCCc6nc(-c7cnn(C8COC8)c7)ccc65)n[nH]c4n3)CC2)[C@@H]1N [Compound 372, (3S,4S)-3-methyl-8-(3-{6-[1-(oxetan-3-yl)-1H-pyrazol-4-yl]-1,2,3,4-tetrahydro-1,5-naphthyridin-1-yl}-1H-pyrazolo[3,4-b]pyrazin-6-yl)-2-oxa-8-azaspiro[4.5]decan-4-amine] | < 1
C[C@@H]1OCC2(CCN(c3cnc4c(N5CCN(CCS(C)(=O)=O)c6cc(C#N)ccc65)n[nH]c4n3)CC2)[C@@H]1N [Compound 408] | < 1
C[C@@H]1OCC2(CCN(c3cnc4c(N5CCNc6cc(-c7cnn(C)c7)ccc65)n[nH]c4n3)CC2)[C@@H]1N [Compound 316, (3S,4S)-3-methyl-8-{3-[6-(1-methyl-1H-pyrazol-4-yl)-1,2,3,4-tetrahydroquinoxalin-1-yl]-1H-pyrazolo[3,4-b]pyrazin-6-yl}-2-oxa-8-azaspiro[4.5]decan-4-amine] | < 1
Cn1cc(-c2cccc3c2CCCN3c2n[nH]c3nc(N4CCC(C)(CN)CC4)cnc23)cn1 [Compound 121] | < 1
CN1CCN(c2n[nH]c3nc(N4CCC(C)(CN)CC4)cnc23)c2cccnc21 [Compound 186] | < 1
Cc1c(C#N)ccc2c1CCCN2c1n[nH]c2nc(N3CCC4(CC3)CO[C@@H](C)[C@H]4N)cnc12 [Compound 208] | < 1
C[C@@H]1OCC2(CCN(c3cnc4c(N5CCCc6c5cccc6S(=O)(=O)c5cnn(C)c5)n[nH]c4n3)CC2)[C@@H]1N [Compound 465] | < 1
CC1(CN)CCN(c2cnc3c(Sc4ccc5cccnc5c4Cl)n[nH]c3n2)CC1 [Compound 516, (1-(3-((8-chloroquinolin-7-yl)thio)-1H-pyrazolo[3,4-b]pyrazin-6-yl)-4-methylpiperidin-4-yl)methanamine] | < 1

From US11591336B2 (Relay Therapeutics, Inc., priority 2017, dated 2023)
